From patent US20260176266A1, “PIPERIDINOPYRIMIDINE DERIVATIVE, PREPARATION METHOD THEREFOR AND USE THEREOF IN MEDICINE” (TUOJIE BIOTECH (SHANGHAI) CO., LTD., priority 2022, published 2026)

How the values were obtained:
[1] = Human liver microsome metabolism study; assay type: in vitro ADME; conditions: human liver microsomes
Procedure: 222.5 μL of human liver microsomes (protein concentration: 1 mg/mL) and 25 μL of NADPH ([…]) were added to an incubation plate and pre-heated for 10 min. 2.5 μL of control compound and test compound (100 μM) were added.
[…] The reaction was stopped by adding 5 volumes of cold acetonitrile containing IS (100 nM alprazolam, 200 nM caffeine, and 100 nM tolbutamide). The reaction mixture was centrifuged, and 100 μL of the supernatant was collected and mixed with 100 μL of ultrapure H2O. Then the mixture was analyzed by LC-MS/MS.
The slope value k was determined by linear regression of the natural logarithm of a curve of the parent drug remaining percentage versus incubation time.
The in-vitro half-life (in-vitro T1/2) was determined by the slope value:
Using the following equation (the average of repeated measurements), the in-vitro T½ (min) was converted to the in-vitro intrinsic clearance rate (in-vitro CLint, in μL/min/mg protein): […]

[2] = target: CDK2/CyclinE1 (Homo sapiens, UniProt P24941); experiment: ADP-Glo kinase assay, CDK2; assay type: biochemical; conditions: 1 nM CDK2/CyclinE1, 15 μM ATP (Km), Histone H1, 60 min; read-out: inhibitory activity (IC50, nM) CDK2
Procedure: (§1) The ADP-Glo kinase assay was used for testing the activity of CDKs. The compounds were diluted in 384-well plates using Echo. The starting concentration was 10 μM and was 3-fold diluted to obtain 10 concentration points, each tested in duplicate, and the final concentration of DMSO in the assay system was 1%. CDK solutions (the final concentrations were 16.5 nM CDK1/CyclinB, 1 nM CDK2/CyclinE1, 16.3 nM CDK4/CyclinD1, 11.5 nM CDK5/p25, 15.7 nM CDK6/CyclinD3, 80 nM CDK7/Cyclin H/MAT1, 15.3 nM CDK9/Cyclin T1, and 150 nM CDK12/CyclinK) prepared in assay buffer were added at 2.5 μL, and the enzymes and compounds were pre-incubated at room temperature for 10 min. ATP (the concentration was Km) & substrate solutions (20 μM ATP & 0.1 mg/mL Histone H1 Protein for CDK1/CyclinB, 15 μM ATP & 0.1 mg/mL Histone H1 Protein for CDK2/CyclinE1, 200 μM ATP & 0.2 mg/mL DYRKtide peptide for CDK4/CyclinD1, 10 μM ATP & 0.1 mg/mL Histone H1 Protein for CDK5/p25, 200 μM ATP & 0.1 mg/mL Histone H1 Protein for CDK6/CyclinD3, 70 μM ATP & 0.2 mg/mL MBP for CDK7/Cyclin H/MAT1, 60 μM ATP & 0.2 mg/mL PDKtide for CDK9/Cyclin T1, and 20 μM ATP & 80 μM pS7-CTD peptide for CDK12/CyclinK) prepared in assay buffer were added at 2.5 μL. After thorough mixing, the plates were incubated at room temperature, with CDK1/4/9/12/13 incubated for 120 min and CDK2/5/6/7 incubated for 60 min. ADP-Glo reagents were added at 4 μL, and the plates were incubated at room temperature for 40 min. Kinase detection reagents were added at 8 μL, and the plates were incubated at room temperature for 40 min. Readings were taken using an Envision multimode microplate reader. Data were processed using GraphPad Prism 8, and IC50 was calculated.
(§2) [formula] • X: the logarithm of the compound concentration; Y: % inhibition.

[3] = target: CDK7/Cyclin H/MAT1 (Homo sapiens, UniProt P50613); experiment: ADP-Glo kinase assay, CDK7; assay type: biochemical; conditions: 80 nM CDK7/Cyclin H/MAT1, 70 μM ATP (Km), MBP, 60 min; read-out: inhibitory activity (IC50, nM) CDK7
Chain of CDK7/Cyclin H/MAT1 (P50613 whole entry, species assumed): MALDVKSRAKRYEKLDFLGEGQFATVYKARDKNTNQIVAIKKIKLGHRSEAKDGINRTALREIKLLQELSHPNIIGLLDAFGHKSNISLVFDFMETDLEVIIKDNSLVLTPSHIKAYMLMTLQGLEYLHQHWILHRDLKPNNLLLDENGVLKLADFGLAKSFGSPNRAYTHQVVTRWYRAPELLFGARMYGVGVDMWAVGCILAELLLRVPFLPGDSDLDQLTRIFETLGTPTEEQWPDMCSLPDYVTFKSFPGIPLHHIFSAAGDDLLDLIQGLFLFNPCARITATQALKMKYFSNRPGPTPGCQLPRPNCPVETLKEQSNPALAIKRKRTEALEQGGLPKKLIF
Chain of CDK7/Cyclin H/MAT1 (P51946 whole entry partner, species assumed): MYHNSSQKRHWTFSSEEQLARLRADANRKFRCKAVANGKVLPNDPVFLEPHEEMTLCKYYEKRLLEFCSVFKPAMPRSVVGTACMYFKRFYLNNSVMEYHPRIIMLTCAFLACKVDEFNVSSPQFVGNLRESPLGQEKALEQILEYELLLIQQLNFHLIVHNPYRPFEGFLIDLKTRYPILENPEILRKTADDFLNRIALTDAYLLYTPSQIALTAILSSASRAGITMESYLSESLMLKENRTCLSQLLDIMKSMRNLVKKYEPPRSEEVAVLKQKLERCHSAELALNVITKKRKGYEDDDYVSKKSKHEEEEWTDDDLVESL
Chain of CDK7/Cyclin H/MAT1 (P51948 whole entry partner, species assumed): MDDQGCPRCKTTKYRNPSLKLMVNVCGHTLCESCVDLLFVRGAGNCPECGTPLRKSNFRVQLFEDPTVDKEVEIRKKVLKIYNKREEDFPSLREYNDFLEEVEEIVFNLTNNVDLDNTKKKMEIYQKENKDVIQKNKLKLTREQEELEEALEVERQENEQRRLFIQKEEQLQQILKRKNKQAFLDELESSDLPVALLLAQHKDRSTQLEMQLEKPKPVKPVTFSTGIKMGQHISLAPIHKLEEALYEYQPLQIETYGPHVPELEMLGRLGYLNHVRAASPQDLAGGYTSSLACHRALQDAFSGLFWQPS
Procedure: as §1, §2

- half-life at 1 μM ([1]; in-vitro half-life): 1.22 h
- microsomal CLint at 1 μM ([1]; in-vitro intrinsic clearance): 19 µL/min/mg
- Remaining amount % at 0.5 min ([1]; incubation 0.5 min): 100.00%
- Remaining amount % at 5 min ([1]; incubation 5 min): 91.32%
- Remaining amount % at 15 min ([1]; incubation 15 min): 78.60%
- Remaining amount % at 30 min ([1]; incubation 30 min): 68.95%
- Remaining amount % at 60 min ([1]; incubation 60 min): 55.59%
- IC50 [2]: 933 nM
- IC50 [3]: 25.2 nM
SMILES: C[C@@H]1Cc2cnc(NCc3ccn(C)n3)nc2CN1C(=O)[C@H]1CCN(C)C[C@@H]1c1ccccc1 [Janssen-01, reference compound]
